Tested on: dendritic cells induced from myeloblasts
Assay: Interferon-α production by dendritic cells induced from mouse myeloblasts (Flt-3L), cultured with JCM5805 and sample
Format: cell-based, mice
Conditions: 0.1 (w/v) % JCM5805 + 0.25 (w/v) % sample; myeloblast-derived dendritic cells; 24 hours
Description: Medium was inoculated with 1 ml of the obtained cell suspension and the culture was incubated at 37° C., 5% CO2 in a CO2 incubator for 1 week to induce dendritic cells. […] The samples were the lactic acid bacteria only, sucrose palmitate, and Ryoto Sugar Ester […] (mainly containing sucrose palmitate) (Mitsubishi-Kagaku Foods Corporation).

**Q.** With sucrose palmitate as the substance, how does the “change of interferon-α inducing activity of JCM5805 by the sample” value read?
**A.** increased
